Laboratory results: patent US20120283096A1, “AGENT FOR IMPROVING PLANT GROWTH, SEEDS, AND METHOD FOR IMPROVING PLANT GROWTH” (Incorporated Administrative Agency National Agricu lture …, priority 2010, published 2012)

Legend:
wheat = test: Seedling establishment of wheat seeds in humid soil (Example 6-1, FIG. 20b); format: in vivo; details: 0.01 mmol to 0.5 mmol molybdenum per gram of dry seed, 20° C., after two weeks
Protocol: (§1) As in Example 4-1, ammonium sulfate in an equivalent amount of 10 g/m^2 in terms of nitrogen and potassium chloride equivalent to 5 g/m^2 of potassium as potassium oxide were added as a solution to paddy humid soil in terms of 100 kg/m^2 of dry soil with a soil-to-liquid ratio of 0.7. The soil was placed into each container (in the shape of a cylinder approximately 7 cm in diameter) in an amount equivalent to 100 g of dry soil. The soil surface was flattened by giving it a slight press with a flat plate. Then, the soil was left at rest for one day at 4° C. […] The seeds were then half-buried in the soil. After that, at a constant temperature of 20° C., the water level was kept by adding water to such an extent that the seeds were slightly covered with water. Six containers were allotted for each condition, and the proportion of seedling establishment (proportion of individual plants that survived) was measured after two weeks. It should be noted that in each of FIGS. 20a and 20b, the horizontal axis represents the number of moles (mmol) of molybdenum that adhered per gram of dry seed. In each of FIGS. 20a and 20b, the dots correspond to the numbers of moles of 0, 0.01, 0.02, 0.05, 0.1, 0.2, and 0.5 mmol, starting from the left. […]

barley [1] = test: Avoidance of wet damage to barley in a poorly-drained paddy field (Example 7, FIG. 21); format: in vivo
Excerpt: To a poorly-drained paddy field in Chikugo City, Fukuoka Prefecture, 1.2 t/10 a of cow manure and ammonium sulfate in an equivalent amount of 6 kg/10 a in terms of nitrogen were applied. In November 2009, 9 kg/10 a of barley seed (branded as Nishinochikara) was planted. In February 2010, the paddy field was partitioned by corrugated plates into eight areas 50 cm×70 cm each. On Feb. 19, 2010 or Mar. 17, 2010, ammonium molybdophosphate was applied in equivalents amounts of 0, 0.03, 0.1, 0.3 mol/m^2 in terms of molybdenum. On May 11, 2010, the shoots of the barley in the areas partitioned from one another by the corrugated plates were harvested, and the dry weight was obtained.

sulfide ion generation = test: Inhibition of sulfide ion generation, paddy seeds covered with slightly-soluble substances (Example 2-3, FIG. 9); details: approximately 0.1 mmol/g (per dry seeds) in terms of molybdenum or tungsten
Excerpt: The water on slightly germinated seeds was lightly wiped off, and immediately after that, the seeds were put with (lightly covered with) various amounts of the slightly-soluble substances shown in Table 1. […] The number of days for which sulfide ion generation was inhibited and the proportion of seedling establishment were examined.

barley [2] = test: Seedling establishment of barley seeds in humid soil (Example 6-1, FIG. 20a); format: in vivo; details: 0.01 mmol to 0.5 mmol molybdenum per gram of dry seed, 20° C., after two weeks
Protocol: as §1

[3] = Molybdenum concentration of aqueous solutions/supernatants measured by ICP-AES versus calculated values (FIGS. 5 and 6); format: physicochemical; details: water, FIG. 6
Protocol: Similarly, aqueous solutions of the slightly-soluble molybdenum-containing substances (as indicated by “Slightly-soluble” in the column “Water solubility” in Table 1) in varying concentrations were prepared. […] In particular, ammonium molybdophosphate (MoPNH), which is a salt of a heteroacid, stops dissolving at a molybdenum amount of approximately 0.2 mM or higher, and can therefore be kept at an especially low concentration.

decay of paddy seeds = test: Decay-inhibiting effect in tank farming without soil (Example 3); details: seeds covered with substance, soaked two weeks in water at 30° C.
Protocol: The decay-inhibiting effect of molybdenum-containing substances in tank farming without soil was examined.
The possibility of growth and the inhibition of decay were determined in the same manner as above.

barley [4] = test: Seedling establishment of barley seeds with ammonium molybdophosphate (Example 5, FIG. 12); format: in vivo; details: 20° C. and 30° C., after two weeks
Protocol: As in Example 4-1, ammonium sulfate in an equivalent amount of 10 g/m^2 in terms of nitrogen and potassium chloride equivalent to 5 g/m^2 of potassium as potassium oxide were added as a solution to paddy humid soil, on the condition that the weight of dry soil is 100 kg/m^2. The soil was placed into each container (in the shape of a cylinder approximately 7 cm in diameter) in an amount equivalent to 100 g of dry soil, shaken for approximately one hour, and left at rest for two days at 4° C. It should be noted, however, that the soil-to-liquid ratio was 0.7. On this condition, the soil surface became substantially as high as the water surface. Barley seeds (branded as Nishinochikara) and soybean seeds (branded as Fukuyutaka) not subjected to treatment such as soaking in advance were soaked in water for one minute. Immediately after the extra water was removed, the seeds were put with a […] molybdenum amount of ammonium molybdophosphate (purchased from Wako Pure Chemical Industries, Ltd.) per gram of dry seed. The seeds were then half-buried in the samples of soil. […] Six containers were allotted for each condition, and the proportion of seedling establishment (proportion of individual plants that survived) was measured after two weeks.

Triammonium 12-moblydo(VI)phosphate trihydrate [Ammonium molybdophosphate]
proportion of seedling establishment (wheat): improvements in proportion of seedling establishment | dry weight of the shoots at harvest time, trend with amount applied (barley [1]; 0.03 to 0.3 mol/m^2 in terms of molybdenum): increase in dry weight of the shoots | dry weight of the shoots at harvest time (barley [1]; approximately 0.3 mol/m^2 molybdenum applied in February): approximately 0.25 kg/m^2 | number of days for which sulfide ion generation was inhibited (sulfide ion generation): fourteen | proportion of seedling establishment (barley [2]): improvements in proportion of seedling establishment | molybdenum amount at which the substance stops dissolving [3]: approximately 0.2 mM | Inhibition of decay, Amount of molybdenum or tungsten added to seed (decay of paddy seeds): <0.01 mmol/g | proportion of seedling establishment (barley [4]): improvements in proportion of seedling establishment
